Measured values from patent publication US20250144067A1, “PERSONALIZED STARVATION THERAPY FOR CANCER” (Faeth Therapeutics, Inc., priority 2021, published 2025).
Structures can show the parent of a compound that is named as a salt.

Tests used:
[1] = system: NCI-H292 lung cancer cells; assay: FDA drug screening, complete media vs cholesterol-free media without statin (TABLE 1); format: cell-based, human
[2] = system: NCI-H292 lung cancer cells; assay: FDA drug screening, complete media vs cholesterol-free media with simvastatin (TABLE 2); format: cell-based, human; settings: for Cholesterol-free media + simvastatin (0.04 μM) / Complete Media: NCI-H292 cells
[3] = NCI-H292 cells, cholesterol-free media without statin
[4] = complete vs cholesterol-free media, greater than 0 enhanced anti-cancer activity, about 0 neutral, below 0 antagonists
[5] = FDA drug library screen, cholesterol-free media with simvastatin 0.04 μM
[6] = FDA drug library screen, complete media
[7] = complete media vs cholesterol-free media + simvastatin (0.04 μM), >0 enhanced anti-cancer activity, about 0 neutral, <0 antagonist
[8] = Complete minus Cholesterol-free, greater than 0 enhanced anti-cancer activity, about 0 neutral, below 0 antagonist
[9] = NCI-H292 cells, FDA drug library screen, cholesterol-free media without statin
[10] = NCI-H292 cells, FDA drug library screen, complete media
[11] = complete media minus cholesterol-free media + simvastatin, >0 enhanced anti-cancer activity, about 0 neutral, <0 antagonist
[12] = Complete minus Cholesterol-free, >0 enhanced anti-cancer activity, about 0 neutral, <0 antagonist
[13] = NCI-H292 cells, cholesterol-free media without statin, FDA drug library screen
[14] = NCI-H292 cells, complete media, FDA drug library screen
[15] = drug in cholesterol-free media with simvastatin 0.04 μM
[16] = cholesterol-free media with simvastatin 0.04 μM, FDA drug library screen (TABLE 2)
[17] = complete media, FDA drug library screen (TABLE 2)
[18] = complete media minus cholesterol-free media + simvastatin (0.04 μM), >0 enhanced anti-cancer activity, about 0 neutral, <0 antagonist
[19] = cholesterol-free media with simvastatin 0.04 μM, cell growth value in FDA drug screen
[20] = complete media, cell growth value in FDA drug screen

Compound | Cholesterol-free [1, 3] | Complete ([1]; NCI-H292 cells, complete media) | Cholesterol-free media + simvastatin (0.04 μM) [2, 5] | Complete Media [2, 6] | Difference [2, 11] | Difference [1, 12] | Cholesterol-free [1, 13] | Complete [1, 14] | further results
CN1C(C(=O)Nc2ccccn2)=C(O)c2sc(Cl)cc2S1(=O)=O [Lornoxicam] | 1.174 | 0.811 | 1.072 | 0.9888 | – | – | – | – | Difference [1, 4]: −0.36; Difference [2, 7]: −0.08
Methylergometrine (maleate) | 1.022 | – | 1.017 | 0.9007 | – | – | – | – | Difference ([1]; complete vs cholesterol-free media, […]): −0.31; Difference ([2]; complete media vs cholesterol-free media + simvastatin (0.04 μM), […]): −0.12
CN(C)CCCN1c2ccccc2Sc2ccccc21 [Promazine (hydrochloride)] | – | – | 0.8407 | 0.9785 | 0.14 | – | – | – | Difference [1, 8]: −0.18; Cholesterol-free [1, 9]: 1.243; Complete [1, 10]: 1.064
CCCCCCOC(=O)CCC(=O)CN [Hexaminolevulinate (hydrochloride)] | – | – | – | – | – | 0.00 | 0.7384 | 0.7376 | Cholesterol-free media + simvastatin (0.04 μM) [2, 15]: 1.074; Complete Media ([2]; drug in complete media): 0.8971; Difference [2, 7]: −0.18
Cc1nccn1CCC(C(N)=O)(c1ccccc1)c1ccccc1 [Imidafenacin] | – | – | – | – | – | – | 0.8368 | 1.001 | Difference ([1]; complete vs cholesterol-free media, >0 enhanced anti-cancer activity, about 0 neutral, <0 antagonist): 0.16; Cholesterol-free media + simvastatin (0.04 μM) [2, 16]: 1.409; Complete Media [2, 17]: 1.383; Difference [2, 18]: −0.03
Dimenhydrinate | 1.237 | 0.8523 | – | – | 0.08 | – | – | – | Difference [1, 4]: −0.39; Cholesterol-free media + simvastatin (0.04 μM) [2, 19]: 0.8945; Complete Media [2, 20]: 0.9753
CN(C)CCOC(=O)COc1ccc(Cl)cc1 [Meclofenoxate (hydrochloride)] | 1.499 | 1.221 | – | – | – | – | – | – | Difference ([1]; Complete minus Cholesterol-free, […]): −0.28; Cholesterol-free media + simvastatin (0.04 μM) [2, 16]: 1.001; Complete Media [2, 17]: 0.9764; Difference ([2]; complete media minus cholesterol-free media + simvastatin (0.04 μM), […]): −0.02
Nc1ccc(S(=O)(=O)Nc2ncccn2)cc1 [Sulfadiazine (sodium)] | – | – | – | – | – | – | – | – | Difference [1, 8]: −0.12; Cholesterol-free [1, 9]: 1.217; Complete [1, 10]: 1.095; Cholesterol-free media + simvastatin (0.04 μM) [2, 15]: 1.234; Complete Media ([2]; drug in complete media): 0.9756; Difference [2, 7]: −0.26
C[C@H]1C[C@@H]2[C@H]([C@@H](O)C[C@@]3(C)[C@H]2CC[C@]3(O)C(=O)CO)[C@@]2(C)C=CC(=O)C=C12 [Methylprednisolone] | 0.8356 | 0.6178 | 1.016 | 1.212 | 0.20 | −0.22 | – | – | –
CN(C)C(=N)N=C(N)N [Metformin] | – | – | 1.921 | – | – | – | – | – | Difference ([1]; Complete minus Cholesterol-free, greater than 0 enhanced anti-cancer activity, about 0 neutral, below 0 antagonists): −0.64; Cholesterol-free ([1]; NCI-H292 cells in cholesterol-free media without statin): 1.603; Complete ([1]; NCI-H292 cells in complete media): 0.9656; Difference [2, 18]: −0.91
COc1cc2nc(N3CCN(C(=O)[C@H]4CCCO4)CC3)nc(N)c2cc1OC [(R)-Terazosin] | 1.165 | 0.7551 | – | – | – | – | – | – | Difference [1, 4]: −0.41; Cholesterol-free media + simvastatin (0.04 μM) [2, 16]: 0.9379; Complete Media [2, 17]: 0.9227; Difference [2, 18]: −0.02
Cc1onc(-c2ccccc2)c1-c1ccc(S(N)(=O)=O)cc1 [Valdecoxib] | – | – | – | – | 0.03 | 0.02 | 0.9021 | 0.9224 | Cholesterol-free media + simvastatin (0.04 μM) [2, 19]: 0.9234; Complete Media [2, 20]: 0.9538
NCCC[C@H](N)C(=O)O [L-Ornithine] | 1.429 | 1.042 | 0.9484 | 1.47 | 0.52 | – | – | – | Difference [1, 4]: −0.39
Ifenprodil (tartrate) | – | – | 0.4918 | – | 0.57 | 0.02 | 0.8921 | 0.9115 | –
CCCCCCc1ccc(O)cc1O [Hexylresorcinol] | – | – | – | – | – | 0.00 | 1.034 | 1.036 | Cholesterol-free media + simvastatin (0.04 μM) [2, 15]: 1.514; Complete Media ([2]; drug in complete media): 1.344; Difference [2, 7]: −0.17
